# Read-outs that look alike come from different tables or passages of the source.
# Columns and labels:
# Format in all cases: in vivo
# Amaranthus retroflexus [1] = assay: Post-emergence herbicidal action against harmful plants; conditions: scored after 3 to 4 weeks
# Protocol: (§1) 2. Post-Emergence Herbicidal Action Against Harmful Plants
# (§2) Seeds of mono- and dicotyledonous harmful plants are placed in sandy loam in cardboard pots, covered with soil and grown in the greenhouse under good growth conditions. Two to three weeks after sowing, the test plants are treated at the three-leaf stage. The compounds according to the invention, which are formulated as wettable powders or as emulsion concentrates, are sprayed at an application rate of 600 to 800 l of water/ha (converted) in a dosage stated in tables 1 to 5 onto the surface of the green plant parts. After the test plants have been left to stand in the greenhouse for 3 to 4 weeks under optimum growth conditions, the action of the compounds according to the invention is scored in comparison to compounds disclosed in the prior art. As shown by the results of these comparison tables, the selected compounds according to the invention have better herbicidal activity against a broad spectrum of economically important mono- and dicotyledonous harmful plants than the compounds disclosed in the prior art.
# Xanthium strumarium = assay: as above; conditions: Comparative Table 1, 20 g a.i./ha, scored after 3 to 4 weeks
# Protocol: as §1, §2
# Viola tricolor = assay: as above; conditions: scored after 3 to 4 weeks
# Protocol: as §1, §2
# Polygonum convolvulus [2] = assay: as above; conditions: Comparative Table 1, 20 g a.i./ha, scored after 3 to 4 weeks
# Protocol: as §1, §2
# Setaria viridis [3] = assay: as above; conditions: scored after 3 to 4 weeks, read-out: Activity against harmful plants SETVI; for pest or weed control at 80 g/ha: Comparative Table 2, 80 g a.i./ha
# Protocol: as §1, §2
# Pharbitis purpureum = assay: as above; conditions: scored after 3 to 4 weeks
# Protocol: as §1, §2
# Veronica persica [4] = assay: as above; conditions: scored after 3 to 4 weeks
# Protocol: as §1, §2
# Digitaria sanguinalis = assay: as above; conditions: Comparative Table 4, 20 g a.i./ha, scored after 3 to 4 weeks
# Protocol: as §1, §2
# Galium aparine = assay: as above; conditions: Comparative Table 4, 20 g a.i./ha, scored after 3 to 4 weeks
# Protocol: as §1, §2
# Amaranthus retroflexus [5] = assay: Pre-emergence herbicidal action against harmful plants; conditions: Comparative Table 5, 80 g a.i./ha, visual scoring 3-4 weeks after treatment
# Source text: (§3) 1. Pre-Emergence Herbicidal Action Against Harmful Plants Seeds or rhizome pieces of mono- and dicotyledonous harmful plants are placed in sandy loam in pots of a diameter of 9 to 13 cm and covered with soil. The herbicides, formulated as emulsifiable concentrates or dusts, are applied to the surface of the covering soil in the form of aqueous dispersions or suspensions or emulsions at an application rate of 300 to 800 l of water/ha (converted), at various dosages. For further cultivation of the plants, the pots are then kept in a greenhouse under optimum conditions. The visual scoring of the damage to the harmful plants is carried out 3-4 weeks after the treatment. As shown by the results of these comparative tables, the selected compounds according to the invention have better herbicidal activity against a broad spectrum of economically important mono- and dicotyledonous harmful plants than the compounds disclosed in the prior art.
# Setaria viridis [6] = assay: as above; conditions: visual scoring 3-4 weeks after treatment
# Source text: as §3
# Avena fatua = assay: as above; conditions: Comparative Table 5, 80 g a.i./ha, visual scoring 3-4 weeks after treatment
# Source text: as §3
# Echinochloa crus galli = assay: as above; conditions: visual scoring 3-4 weeks after treatment
# Source text: as §3
# Cyperus serotinus = assay: as above; conditions: Comparative Table 7, 320 g a.i./ha, visual scoring 3-4 weeks after treatment
# Source text: as §3
# Veronica persica [7] = assay: as above; conditions: Comparative Table 7, 320 g a.i./ha, visual scoring 3-4 weeks after treatment
# Source text: as §3
# Polygonum convolvulus [8] = assay: as above; conditions: Comparative Table 7, 320 g a.i./ha, visual scoring 3-4 weeks after treatment
# Source text: as §3
# Abutilon theophrasti = assay: Post-emergence herbicidal action against harmful plants; conditions: Comparative Table 8, 20 g a.i./ha, scored after 3 to 4 weeks
# Protocol: as §1, §2
# Stellaria media = assay: as above; conditions: Comparative Table 8, 20 g a.i./ha, scored after 3 to 4 weeks
# Protocol: as §1, §2
# [9] = Comparative Table 1, 20 g a.i./ha
# [10] = Comparative Table 2, 80 g a.i./ha
# [11] = Comparative Table 3, 20 g a.i./ha
# [12] = Comparative Table 4, 20 g a.i./ha
# [13] = Comparative Table 5, 80 g a.i./ha
# [14] = Comparative Table 6, 20 g a.i./ha
# [15] = Comparative Table 8, 20 g a.i./ha
smiles,measurement,setting,value
CNc1c(S(C)(=O)=O)ccc(C(=O)c2cnn(C)c2O)c1C,Activity against harmful plants AMARE,Amaranthus retroflexus [1]; [9],90%
same,Activity against harmful plants XANST,Xanthium strumarium,80%
same,Activity against harmful plants VIOTR,Viola tricolor; [9],100%
same,Activity against harmful plants POLCO,Polygonum convolvulus [2],90%
CNc1c(S(C)(=O)=O)ccc(C(=O)c2cnn(C)c2O)c1Cl,Activity against harmful plants AMARE,Amaranthus retroflexus [1]; [9],70%
same,Activity against harmful plants XANST,Xanthium strumarium,50%
same,Activity against harmful plants VIOTR,Viola tricolor; [9],70%
same,Activity against harmful plants POLCO,Polygonum convolvulus [2],40%
COCCCN(C)c1c(S(C)(=O)=O)ccc(C(=O)c2cnn(C)c2O)c1C,Activity against harmful plants AMARE,Amaranthus retroflexus [1]; [10],100%
same,pest or weed control at 80 g/ha,Setaria viridis [3],100%
same,Activity against harmful plants PHBPU,Pharbitis purpureum; [10],70%
same,Activity against harmful plants VIOTR,Viola tricolor; [10],90%
COCCCN(C)c1c(S(C)(=O)=O)ccc(C(=O)c2cnn(C)c2O)c1Cl,Activity against harmful plants AMARE,Amaranthus retroflexus [1]; [10],70%
same,pest or weed control at 80 g/ha,Setaria viridis [3],0%
same,Activity against harmful plants PHBPU,Pharbitis purpureum; [10],40%
same,Activity against harmful plants VIOTR,Viola tricolor; [10],70%
COCCN(C)c1c(S(C)(=O)=O)ccc(C(=O)c2cnn(C)c2O)c1C,Activity against harmful plants AMARE,Amaranthus retroflexus [1]; [11],90%
same,pest or weed control at 20 g/ha,Setaria viridis [3]; [11],90%
same,Activity against harmful plants PHBPU,Pharbitis purpureum; [11],80%
same,Activity against harmful plants VERPE,Veronica persica [4]; [11],100%
COCCN(C)c1c(S(C)(=O)=O)ccc(C(=O)c2cnn(C)c2O)c1Cl,Activity against harmful plants AMARE,Amaranthus retroflexus [1]; [11],60%
same,pest or weed control at 20 g/ha,Setaria viridis [3]; [11],50%
same,Activity against harmful plants PHBPU,Pharbitis purpureum; [11],30%
same,Activity against harmful plants VERPE,Veronica persica [4]; [11],60%
CCCNc1c(S(C)(=O)=O)ccc(C(=O)c2cnn(C)c2O)c1C,pest or weed control at 20 g/ha,Setaria viridis [3]; [12],80%
same,Activity against harmful plants DIGSA,Digitaria sanguinalis,90%
same,Activity against harmful plants VERPE,Veronica persica [4]; [12],70%
same,Activity against harmful plants GALAP,Galium aparine,80%
CCCNc1c(S(C)(=O)=O)ccc(C(=O)c2cnn(C)c2O)c1Cl,pest or weed control at 20 g/ha,Setaria viridis [3]; [12],50%
same,Activity against harmful plants DIGSA,Digitaria sanguinalis,70%
same,Activity against harmful plants VERPE,Veronica persica [4]; [12],30%
same,Activity against harmful plants GALAP,Galium aparine,30%
CCOCCNc1c(S(C)(=O)=O)ccc(C(=O)c2cnn(C)c2O)c1C,Activity against harmful plants AMARE,Amaranthus retroflexus [5],100%
same,Activity against harmful plants SETVI,Setaria viridis [6]; [13],100%
same,Activity against harmful plants AVEFA,Avena fatua,50%
same,Activity against harmful plants ECHCG,Echinochloa crus galli; [13],100%
CCOCCNc1c(S(C)(=O)=O)ccc(C(=O)c2cnn(C)c2O)c1Cl,Activity against harmful plants AMARE,Amaranthus retroflexus [5],80%
same,Activity against harmful plants SETVI,Setaria viridis [6]; [13],80%
same,Activity against harmful plants AVEFA,Avena fatua,0%
same,Activity against harmful plants ECHCG,Echinochloa crus galli; [13],40%
CCNc1c(S(C)(=O)=O)ccc(C(=O)c2cnn(C)c2O)c1C,Activity against harmful plants SETVI,Setaria viridis [6]; [14],60%
same,Activity against harmful plants ECHCG,Echinochloa crus galli; [14],90%
CCNc1c(S(C)(=O)=O)ccc(C(=O)c2cnn(C)c2O)c1Cl,Activity against harmful plants SETVI,Setaria viridis [6]; [14],0%
same,Activity against harmful plants ECHCG,Echinochloa crus galli; [14],60%
Cc1c(C(=O)c2cnn(C)c2O)ccc(S(C)(=O)=O)c1NCC1CC1,Activity against harmful plants CYPES,Cyperus serotinus,100%
same,Activity against harmful plants VERPE,Veronica persica [7],100%
same,Activity against harmful plants POLCO,Polygonum convolvulus [8],60%
Cn1ncc(C(=O)c2ccc(S(C)(=O)=O)c(NCC3CC3)c2Cl)c1O,Activity against harmful plants CYPES,Cyperus serotinus,40%
same,Activity against harmful plants VERPE,Veronica persica [7],80%
same,Activity against harmful plants POLCO,Polygonum convolvulus [8],0%
Cc1c(C(=O)c2cnn(C)c2O)ccc(S(C)(=O)=O)c1N(C)CC1CC1,pest or weed control at 20 g/ha,Setaria viridis [3]; [15],90%
same,Activity against harmful plants VERPE,Veronica persica [4]; [15],80%
same,Activity against harmful plants ABUTH,Abutilon theophrasti,90%
same,Activity against harmful plants STEME,Stellaria media,100%
CN(CC1CC1)c1c(S(C)(=O)=O)ccc(C(=O)c2cnn(C)c2O)c1Cl,pest or weed control at 20 g/ha,Setaria viridis [3]; [15],30%
same,Activity against harmful plants VERPE,Veronica persica [4]; [15],60%
same,Activity against harmful plants ABUTH,Abutilon theophrasti,70%
same,Activity against harmful plants STEME,Stellaria media,80%
